Key:
[1] = target: T1, MTHFD1 recombinant human enzyme (Homo sapiens, UniProt P11586); test: MTHFD1 inhibition assay (NAD(P)H-Glo luminescence); conditions: MTHFD1 IC50, recombinant human enzyme 200 nM, NADP, band
T1 sequence (P11586 2-291 limits assumed): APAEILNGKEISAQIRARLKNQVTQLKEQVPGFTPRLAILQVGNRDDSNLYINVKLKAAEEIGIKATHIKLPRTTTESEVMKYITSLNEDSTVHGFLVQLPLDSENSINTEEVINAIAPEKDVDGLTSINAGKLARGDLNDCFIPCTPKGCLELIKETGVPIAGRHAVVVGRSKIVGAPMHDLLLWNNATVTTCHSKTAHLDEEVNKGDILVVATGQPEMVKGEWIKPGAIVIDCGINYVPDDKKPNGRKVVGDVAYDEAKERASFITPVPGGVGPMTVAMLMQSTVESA

[2] = target: T2, MTHFD2 recombinant human enzyme (Homo sapiens, UniProt P13995); test: MTHFD2 inhibition assay (NAD(P)H-Glo luminescence); conditions: for MTHFD1/MTHFD2 IC50 ratio: selectivity of MTHFD2 inhibition over MTHFD1, band
T2 sequence (P13995 36-350): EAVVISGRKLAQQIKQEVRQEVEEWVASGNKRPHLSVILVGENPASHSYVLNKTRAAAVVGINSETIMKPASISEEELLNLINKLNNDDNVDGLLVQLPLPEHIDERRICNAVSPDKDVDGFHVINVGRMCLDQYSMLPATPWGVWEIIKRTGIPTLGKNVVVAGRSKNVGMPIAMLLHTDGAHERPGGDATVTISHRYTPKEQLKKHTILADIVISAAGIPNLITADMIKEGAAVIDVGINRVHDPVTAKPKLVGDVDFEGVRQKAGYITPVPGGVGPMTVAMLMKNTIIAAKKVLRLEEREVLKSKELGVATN

[3] = system: human CD4+ T cells; test: Human CD4+ T-cell proliferation assay (CFSE, CD3/28 beads); conditions: read-out: Proliferation IC50

Structure (SMILES) | IC50 [1] | IC50 [2] | MTHFD1/MTHFD2 IC50 ratio [2] | IC50 [3]
COC[C@H]1CN(c2cc(C)c3c4c(c(=O)oc3c2C)CN(C(=O)c2cc(N)c(C(=O)NS(=O)(=O)N3CCCC3)cc2F)CC4)CCN1C [Example 196, (R)-2-amino-5-fluoro-4-(8-(3-(methoxymethyl)-4-methylpiperazin-1-yl)-7,10-dimethyl-5-oxo-1,3,4,5-tetrahydro-2H-chromeno[3,4-c]pyridine-3-carbonyl)-N-(pyrrolidin-1-ylsulfonyl)benzamide] | 1000 to 5000 nM | 10 to 100 nM | J (>30) | > 5000 nM
COC[C@H]1CN(c2cc(C)c3c4c(c(=O)oc3c2C)CN(C(=O)c2ccc(C(=O)NS(=O)(=O)N3CC5CCCCC5C3)cc2)CC4)CCN1C (stereo partly drawn) [Example 211, 4-(8-((R)-3-(methoxymethyl)-4-methylpiperazin-1-yl)-7,10-dimethyl-5-oxo-1,3,4,5-tetrahydro-2H-chromeno[3,4-c]pyridine-3-carbonyl)-N-((octahydro-2H-isoindol-2-yl)sulfonyl)benzamide] | 1000 to 5000 nM | 10 to 100 nM | H (>9.0 to 30) | 1000 to 5000 nM
COC[C@H]1CN(c2cc(C)c3c4c(c(=O)oc3c2C)CN(C(=O)c2cc(OC3CC3)c(C(=O)NS(=O)(=O)N3C5CCC3CC5)cc2F)CC4)CCN1C [Example 331, (R)-N-((7-azabicyclo[2.2.1]heptan-7-yl)sulfonyl)-2-cyclopropoxy-5-fluoro-4-(8-(3-(methoxymethyl)-4-methylpiperazin-1-yl)-7,10-dimethyl-5-oxo-1,3,4,5-tetrahydro-2H-chromeno[3,4-c]pyridine-3-carbonyl)benzamide] | 100 to 1000 nM | 1 to 10 nM | J (>30) | 30 to 100 nM
COC[C@H]1CN(c2cc(C)c3c4c(c(=O)oc3c2C)CN(C(=O)c2cc(N(C)C)c(C(=O)NS(=O)(=O)N3CCC[C@H]3C(F)(F)F)cc2F)CC4)CCN1C [Example 292, 2-(dimethylamino)-5-fluoro-4-(8-((R)-3-(methoxymethyl)-4-methylpiperazin-1-yl)-7,10-dimethyl-5-oxo-1,3,4,5-tetrahydro-2H-chromeno[3,4-c]pyridine-3-carbonyl)-N-(((S)-2-(trifluoromethyl)pyrrolidin-1-yl)sulfonyl)benzamide] | 100 to 1000 nM | 10 to 100 nM | J (>30) | 1 to 10 nM
COC[C@H]1CN(c2cc(C)c3c4c(c(=O)oc3c2C)CN(C(=O)c2ccc(C(=O)NS(=O)(=O)N3CCCC3)cc2)CC4)CCN1C [Example 195, (R)-4-(8-(3-(methoxymethyl)-4-methylpiperazin-1-yl)-7,10-dimethyl-5-oxo-1,3,4,5-tetrahydro-2H-chromeno[3,4-c]pyridine-3-carbonyl)-N-(pyrrolidin-1-ylsulfonyl)benzamide] | 1000 to 5000 nM | 10 to 100 nM | J (>30) | 1000 to 5000 nM
COC[C@H]1CN(c2cc(Cl)c3c4c(c(=O)oc3c2C)CN(C(=O)c2cc(N(C)C)c(C(=O)NS(=O)(=O)N3C[C@H]5C[C@@H]3CO5)cc2F)CC4)CCN1C [Example 294, N-(((1R,4R)-2-oxa-5-azabicyclo[2.2.1]heptan-5-yl)sulfonyl)-4-(10-chloro-8-((R)-3-(methoxymethyl)-4-methylpiperazin-1-yl)-7-methyl-5-oxo-1,3,4,5-tetrahydro-2H-chromeno[3,4-c]pyridine-3-carbonyl)-2-(dimethylamino)-5-fluorobenzamide] | 100 to 1000 nM | 10 to 100 nM | J (>30) | 10 to 30 nM

More lines, main results first:

IC50 [1] | IC50 [2] | MTHFD1/MTHFD2 IC50 ratio [2] | Structure (SMILES) | IC50 [3]
100 to 1000 nM | 1 to 10 nM | J (>30) | COC[C@H]1CN(c2cc(C)c3c4c(c(=O)oc3c2C)CN(C(=O)c2cc(N(C)C)c(C(=O)NS(=O)(=O)N3CC5CC5C3)cc2F)CC4)CCN1C (stereo partly drawn) [Example 315, N-((3-azabicyclo[3.1.0]hexan-3-yl)sulfonyl)-2-(dimethylamino)-5-fluoro-4-(8-((R)-3-(methoxymethyl)-4-methylpiperazin-1-yl)-7,10-dimethyl-5-oxo-1,3,4,5-tetrahydro-2H-chromeno[3,4-c]pyridine-3-carbonyl)benzamide] | 1 to 10 nM
100 to 1000 nM | 1 to 10 nM | J (>30) | COC[C@H]1CN(c2cc(C)c3c4c(c(=O)oc3c2C)CN(C(=O)c2cc(OC)c(C(=O)NS(=O)(=O)N3CC5CC5C3)cc2F)CC4)CCN1C (stereo partly drawn) [Example 249, N-((3-azabicyclo[3.1.0]hexan-3-yl)sulfonyl)-5-fluoro-2-methoxy-4-(8-((R)-3-(methoxymethyl)-4-methylpiperazin-1-yl)-7,10-dimethyl-5-oxo-1,3,4,5-tetrahydro-2H-chromeno[3,4-c]pyridine-3-carbonyl)benzamide] | 30 to 100 nM
100 to 1000 nM | 10 to 100 nM | H (>9.0 to 30) | CCOc1cc(C(=O)N2CCc3c(c(=O)oc4c(C)c(N5CCN(C)[C@@H](COC)C5)cc(C)c34)C2)c(F)cc1C(=O)NS(=O)(=O)N1CCCC1 [Example 202, (R)-2-ethoxy-5-fluoro-4-(8-(3-(methoxymethyl)-4-methylpiperazin-1-yl)-7,10-dimethyl-5-oxo-1,3,4,5-tetrahydro-2H-chromeno[3,4-c]pyridine-3-carbonyl)-N-(pyrrolidin-1-ylsulfonyl)benzamide] | 10 to 30 nM
100 to 1000 nM | 1 to 10 nM | J (>30) | COC[C@H]1CN(c2cc(Cl)c3c4c(c(=O)oc3c2C)CN(C(=O)c2cc(N(C)C)c(C(=O)NS(=O)(=O)N3CC[C@@H](F)C3)cc2F)CC4)CCN1C [Example 303, 4-(10-chloro-8-((R)-3-(methoxymethyl)-4-methylpiperazin-1-yl)-7-methyl-5-oxo-1,3,4,5-tetrahydro-2H-chromeno[3,4-c]pyridine-3-carbonyl)-2-(dimethylamino)-5-fluoro-N-(((R)-3-fluoropyrrolidin-1-yl)sulfonyl)benzamide] | 10 to 30 nM
100 to 1000 nM | 1 to 10 nM | J (>30) | CCOc1cc(C(=O)N2CCc3c(c(=O)oc4c(C)c(N5CCN(C)[C@@H](COC)C5)cc(C)c34)C2)c(F)cc1C(=O)NS(=O)(=O)N1C[C@@H]2C[C@H]1CO2 [Example 267, N-(((1S,4S)-2-oxa-5-azabicyclo[2.2.1]heptan-5-yl)sulfonyl)-2-ethoxy-5-fluoro-4-(8-((R)-3-(methoxymethyl)-4-methylpiperazin-1-yl)-7,10-dimethyl-5-oxo-1,3,4,5-tetrahydro-2H-chromeno[3,4-c]pyridine-3-carbonyl)benzamide] | 100 to 1000 nM
10 to 100 nM | 10 to 100 nM | G (^ 3 to 9.0) | CCOc1cc(C(=O)N2CCc3c(c(=O)oc4c(C)c(N5CCN(C)[C@@H](COC)C5)cc(C)c34)C2)c(F)cc1C(=O)NS(=O)(=O)N1CC2CC2C1 (stereo partly drawn) [Example 219, N-((3-azabicyclo[3.1.0]hexan-3-yl)sulfonyl)-2-ethoxy-5-fluoro-4-(8-((R)-3-(methoxymethyl)-4-methylpiperazin-1-yl)-7,10-dimethyl-5-oxo-1,3,4,5-tetrahydro-2H-chromeno[3,4-c]pyridine-3-carbonyl)benzamide] | 10 to 30 nM

Reference: patent US12662489B2 (Sitryx Therapeutics Limited, priority 2023, dated 2026)
